From US20200022967A1, “Use of 2-carboxamide cycloamino urea derivatives in the treatment of EGFR dependent diseases or diseases that have acquired resistance to agents that target EGFR family members” (Novartis AG, priority 2010, published 2020) come the findings set out here.

Structures are written as SMILES.

Data set [1] in a line: Body weight loss in HBCx-5 xenograft study (Example 5). The conditions noted are these: capecitabine single agent; significant and transient.
Method: Experiments were performed in female HSD: athymic nude-Foxn1nu mice approximately 8-10 weeks of age and weighing approximately 19-25 grams. The mice were allowed to acclimate with access to food and water ad libitum for 6 days prior to the study. When body weight loss reaches 15% compared to the first day of treatment, DietGel® was provided to the animals.
The mice were divided into five groups each comprising ten mice. Treatments were initiated 34 days post-implantation of the HBCx-5 xenograft tumor. […] For xenograft implantation, the mice were anesthetized with 100 mg/kg ketamine hydrochloride and 10 mg/kg xylazine. Using asceptic technique, the mice were grafted in interscapular with 3 mm on 3 mm tumor fragment. […] Tumors were measured with calipers three times per week at the start of dosing. Tumors were calculated using the formula: =width^2×length/2. Tumor size and body weight were measured three times per week during the treatment period. The planned endpoints for the experiment were a treatment phase of six weeks and no follow-up phase.
Antitumor activity is expressed as T/C % (mean change of tumor volume of treated animals/mean change of tumor volume of control animals)×100. Tumor volume and relative body weight were used for statistical analysis. Group comparisons were performed using a Mann Whitney non parametric test between treated group and control group.
The test system of data set [2] is HBCx-5 xenograft tumor. Kind of data set: HBCx-5 breast cancer xenograft, antitumor activity (Example 5). It counts as in vivo, mice. The conditions noted are these: capecitabine 40 mg/kg single agent p.o., five times per week, two cycles; p<0.001. As to the method: Compound A was suspended at mg/ml in 0.5% methylcellulose (Sigma Aldrich, St. Louis, Mo.). It was homogenized by stirring vortexing and sonication. The suspension was stored at 4° C. for 7 days protected from light. […] Stock solution at 21 mg/ml was diluted just before administration at 1 mg/ml with sterile water for injection. Capecitabine (Xeloda®, Roche) at […] was kept at 4° C. protected from light. Capecitabine pellets were crushed and suspended in NaCl 0.9%.
Dose was body weight adjusted at each injection.
Capecitabine was administered by oral gavage (p.o.) at […], five times per week for two weeks (i.e., five consecutive dosing days/week). After a one week rest, a second treatment cycle was performed.

The nature of data set [3]: Body weight nadir and deaths in NCI-N87 lapatinib study (Example 6).
Method: Treatments started eight days post tumor cell implantation and lasted for 59 consecutive days or until tumor volume=1000 mm^3. […] For the b.i.d. dosing schedule, the first dose was given p.m. on Day 1 and last dose a.m. on Day 22. […] Body weights were recorded on Days 1-5, on each treatment day (except weekends), and twice weekly thereafter until end of the study.
Data set [4] relates to NCI-N87 tumors. Kind of data set: NCI-N87 xenograft in CB17 SCID mice, Compound A alone and with lapatinib (Example 6). It counts as in vivo. The conditions noted are these: for Median TTE: control 26.2, vs G1 ***; for Mean Tumor Volume (no. animals, n) Day 59: n=1. The protocol:
The NCI-N87 cells were harvested with 5× trypsin. Eight days after tumor implantation (on Day 1 of the study), mice with an individual tumor volume of 88-196 mm^3 were sorted into 10 groups of ten mice with a group mean tumor volume of 143-149 mm^3.
Where applicable, data is presented as mean±SEM. Each animal was euthanized when its neoplasm reached the endpoint volume (1000 mm^3), or on the last day of the study (Day 59). Time to endpoint (TTE) is calculated by the equation: TTE=(log10(endpoint volume)−b)/m, where TTE is expressed in days, endpoint volume is in mm3, b is the intercept and m is the slope of the line obtained by linear regression of a log-transformed tumor growth data set. Treatment efficacy was determined from Tumor Growth Delay (TGD), which was defined as the increase in the median time to endpoint (TTE) for a treatment group compared to the control group (TGD=T−C), expressed in days, or as a percentage of the median TTE of the control group (% TGD=((T−C)/C)×100), wherein T=median TTE for a treatment group and C=median TTE for the designated control group.
Statistical and graphical analyses was performed with Prism 3.03 (GraphPad) for Windows. For all tests, the level of significance of differences was done using ANOVA, with Bartlett's test; and a post-hoc Dunnett's multiple comparison test compared the mean change for each drub-treated group to the mean for Group 1. Survival was analyzed by the Kaplan-Meier method. The logrank test was employed to analyze the significance of the difference between the overall survival experiences of two groups, based on time to endpoint (TTE) values. The two-tailed statistical analyses were conducted at P=0.05. Prism summarizes test results as not significant (ns) at P>0.05, significant (symbolized by “*”) at 0.01<P<0.05, very significant (symbolized by “**”) at 0.001<P<0.01, and extremely significant (symbolized by “***”) at P<0.001.

[5] abbreviates: Group 4 (10 animals): lapatinib 50 mg/kg p.o. b.i.d.
Where [6] appears, read: Group 5 (10 animals): lapatinib 100 mg/kg p.o. once daily.
Where [7] appears, read: Group 6: lapatinib 150 mg/kg p.o. once daily.
The mark [8] stands for this setting: Group 4: lapatinib 50 mg/kg p.o. b.i.d.
Where [9] appears, read: Group 5: lapatinib 100 mg/kg p.o. once daily.
The mark [10] stands for this setting: Group 6 (9 animals): lapatinib 150 mg/kg p.o. once daily.

As usually defined, the T/C is the ratio of treated to control. In the case of `CCCCCOC(=O)Nc1nc(=O)n([C@@H]2O[C@H](C)[C@@H](O)[C@H]2O)cc1F` [Capecitabine, reference compound], the body weight loss in data set [1] turned out to be 9.1%. The molecule also gave a T/C in data set [2] of 9.03%.

Consider `CS(=O)(=O)CCNCc1ccc(-c2ccc3ncnc(Nc4ccc(OCc5cccc(F)c5)c(Cl)c4)c3c2)o1` [lapatinib], for which the “Deaths (TR/NTR)” value in data set [3] (setting [5]) and in data set [3] (setting [6]) was 0 throughout. In data set [3] (setting [7]), the “Deaths NTR = non-treatment related” value was “NTR: 1”. The “Deaths TR = treatment-related” value in data set [3] (setting [7]) is “TR: 0”. The “Regressions CR” value in data set [4] (setting [5]), in data set [4] (setting [6]) and in data set [4] (setting [10]) was “CR: 0” each time. Besides, the figures for the “Regressions PR” value in data set [4] (setting [5]), in data set [4] (setting [6]) and in data set [4] (setting [10]) were “PR: 0,”, “PR: 0,” and “PR: 1,”, respectively. In addition, the “Median TTE” value in data set [4] (Group 4 (10 animals): lapatinib 50 mg/kg p.o. b.i.d. for 21 days) is 47.7 days; in data set [4] (Group 6 (9 animals): lapatinib 150 mg/kg p.o. once daily for 21 days), 50.6 days. For the same molecule, the “% TGD” value in data set [4] (setting [8]) is listed as 66%; in data set [4] (setting [9]), 82%; in data set [4] (setting [7]), 63%. In addition, the figures for the “Mean Tumor Volume (no. animals, n) Day 59” value in data set [4] (setting [8]) and in data set [4] (setting [9]) were 608 (1) and 750 (1), respectively. Also, the T-C was found to be 16.4 days in data set [4] (setting [9]) and 24.4 days in data set [4] (setting [7]).
